Assay results: ChEMBL document CHEMBL3044623, “Feeding cessation effects of chlorantraniliprole, a new anthranilic diamide insecticide, in comparison with several insecticides in distinct chemical classes and mode-of-action groups” (2009)

What was measured:
Trichoplusia ni [1] = experiment: Antifeedant activity against third-instar larval stage of Trichoplusia ni (cabbage looper) infested compound-treated leaf assessed as reduction in feeding damage at 467 mg a.i/L after 48 hr by leaf disk assay relative to untreated control; format: functional; parameters: scale not given: the % may be the effect or the level left
Plutella xylostella [2] = experiment: Antifeedant activity against third-instar larval stage of Plutella xylostella (diamondback moth) infested compound-treated leaf assessed as reduction in feeding damage at 467 mg a.i/L after 48 hr by leaf disk assay relative to untreated control; format: functional; parameters: scale not given: the % may be the effect or the level left
Plutella xylostella [3] = experiment: Antifeedant activity against third-instar larval stage of Plutella xylostella (diamondback moth) infested compound-treated leaf assessed as time required to stop feeding at 467 mg a.i/L after 48 hr by leaf disk assay (reference value: > 2880 min); format: functional
Helicoverpa zea [4] = experiment: Antifeedant activity against third-instar larval stage of Helicoverpa zea (corn earworm) infested compound-treated leaf assessed as reduction in feeding damage at 467 mg a.i/L after 48 hr by leaf disk assay relative to untreated control; format: functional; parameters: scale not given: the % may be the effect or the level left
Spodoptera exigua [5] = experiment: Antifeedant activity against third-instar larval stage of Spodoptera exigua infested compound-treated leaf assessed as time required to stop feeding at 467 mg a.i/L after 48 hr by leaf disk assay (reference value: > 2880 min); format: functional
Spodoptera exigua [6] = experiment: Antifeedant activity against third-instar larval stage of Spodoptera exigua infested compound-treated leaf assessed as reduction in feeding damage at 467 mg a.i/L after 48 hr by leaf disk assay relative to untreated control; format: functional; parameters: scale not given: the % may be the effect or the level left
Trichoplusia ni [7] = experiment: Antifeedant activity against third-instar larval stage of Trichoplusia ni (cabbage looper) infested compound-treated leaf assessed as time required to stop feeding at 467 mg a.i/L after 48 hr by leaf disk assay (reference value: > 2880 min); format: functional
Helicoverpa zea [8] = experiment: Antifeedant activity against third-instar larval stage of Helicoverpa zea (corn earworm) infested compound-treated leaf assessed as time required to stop feeding at 467 mg a.i/L after 48 hr by leaf disk assay (reference value: > 2880 min); format: functional
Plutella xylostella [9] = experiment: Antifeedant activity against third-instar larval stage of Plutella xylostella (diamondback moth) infested compound-treated leaf assessed as reduction in feeding damage at 936 mg a.i/L after 48 hr by leaf disk assay relative to untreated control; format: functional, organism-based; parameters: scale not given: the % may be the effect or the level left
Plutella xylostella [10] = experiment: Antifeedant activity against third-instar larval stage of Plutella xylostella (diamondback moth) infested compound-treated leaf assessed as time required to stop feeding at 936 mg a.i/L after 48 hr by leaf disk assay (reference value: > 2880 min); format: functional, organism-based
Trichoplusia ni [11] = experiment: Antifeedant activity against third-instar larval stage of Trichoplusia ni (cabbage looper) infested compound-treated leaf assessed as reduction in feeding damage at 936 mg a.i/L after 48 hr by leaf disk assay relative to untreated control; format: functional, organism-based; parameters: scale not given: the % may be the effect or the level left
Helicoverpa zea [12] = experiment: Antifeedant activity against third-instar larval stage of Helicoverpa zea (corn earworm) infested compound-treated leaf assessed as reduction in feeding damage at 936 mg a.i/L after 48 hr by leaf disk assay relative to untreated control; format: functional, organism-based; parameters: scale not given: the % may be the effect or the level left
Spodoptera exigua [13] = experiment: Antifeedant activity against third-instar larval stage of Spodoptera exigua infested compound-treated leaf assessed as time required to stop feeding at 936 mg a.i/L after 48 hr by leaf disk assay (reference value: > 2880 min); format: functional, organism-based
Spodoptera exigua [14] = experiment: Antifeedant activity against third-instar larval stage of Spodoptera exigua infested compound-treated leaf assessed as reduction in feeding damage at 936 mg a.i/L after 48 hr by leaf disk assay relative to untreated control; format: functional, organism-based; parameters: scale not given: the % may be the effect or the level left
Trichoplusia ni [15] = experiment: Antifeedant activity against third-instar larval stage of Trichoplusia ni (cabbage looper) infested compound-treated leaf assessed as time required to stop feeding at 936 mg a.i/L after 48 hr by leaf disk assay (reference value: > 2880 min); format: functional, organism-based
Helicoverpa zea [16] = experiment: Antifeedant activity against third-instar larval stage of Helicoverpa zea (corn earworm) infested compound-treated leaf assessed as time required to stop feeding at 936 mg a.i/L after 48 hr by leaf disk assay (reference value: > 2880 min); format: functional, organism-based
Trichoplusia ni [17] = experiment: Antifeedant activity against third-instar larval stage of Trichoplusia ni (cabbage looper) infested compound-treated leaf assessed as reduction in feeding damage at 167 mg a.i/L after 48 hr by leaf disk assay relative to untreated control; format: functional; parameters: scale not given: the % may be the effect or the level left
Plutella xylostella [18] = experiment: Antifeedant activity against third-instar larval stage of Plutella xylostella (diamondback moth) infested compound-treated leaf assessed as reduction in feeding damage at 167 mg a.i/L after 48 hr by leaf disk assay relative to untreated control; format: functional; parameters: scale not given: the % may be the effect or the level left
Plutella xylostella [19] = experiment: Antifeedant activity against third-instar larval stage of Plutella xylostella (diamondback moth) infested compound-treated leaf assessed as time required to stop feeding at 167 mg a.i/L after 48 hr by leaf disk assay (reference value: > 2880 min); format: functional
Trichoplusia ni [20] = experiment: Antifeedant activity against third-instar larval stage of Trichoplusia ni (cabbage looper) infested compound-treated leaf assessed as time required to stop feeding at 167 mg a.i/L after 48 hr by leaf disk assay (reference value: > 2880 min); format: functional
Spodoptera exigua [21] = experiment: Antifeedant activity against third-instar larval stage of Spodoptera exigua infested compound-treated leaf assessed as time required to stop feeding at 167 mg a.i/L after 48 hr by leaf disk assay (reference value: > 2880 min); format: functional
Spodoptera exigua [22] = experiment: Antifeedant activity against third-instar larval stage of Spodoptera exigua infested compound-treated leaf assessed as reduction in feeding damage at 167 mg a.i/L after 48 hr by leaf disk assay relative to untreated control; format: functional; parameters: scale not given: the % may be the effect or the level left
Helicoverpa zea [23] = experiment: Antifeedant activity against third-instar larval stage of Helicoverpa zea (corn earworm) infested compound-treated leaf assessed as reduction in feeding damage at 167 mg a.i/L after 48 hr by leaf disk assay relative to untreated control; format: functional; parameters: scale not given: the % may be the effect or the level left
Helicoverpa zea [24] = experiment: Antifeedant activity against third-instar larval stage of Helicoverpa zea (corn earworm) infested compound-treated leaf assessed as time required to stop feeding at 167 mg a.i/L after 48 hr by leaf disk assay (reference value: > 2880 min); format: functional
Plutella xylostella [25] = experiment: Antifeedant activity against third-instar larval stage of Plutella xylostella (diamondback moth) infested compound-treated leaf assessed as reduction in feeding damage at 124 mg a.i/L after 48 hr by leaf disk assay relative to untreated control; format: functional; parameters: scale not given: the % may be the effect or the level left
Plutella xylostella [26] = experiment: Antifeedant activity against third-instar larval stage of Plutella xylostella (diamondback moth) infested compound-treated leaf assessed as time required to stop feeding at 124 mg a.i/L after 48 hr by leaf disk assay (reference value: > 2880 min); format: functional
Trichoplusia ni [27] = experiment: Antifeedant activity against third-instar larval stage of Trichoplusia ni (cabbage looper) infested compound-treated leaf assessed as time required to stop feeding at 124 mg a.i/L after 48 hr by leaf disk assay (reference value: > 2880 min); format: functional
Spodoptera exigua [28] = experiment: Antifeedant activity against third-instar larval stage of Spodoptera exigua infested compound-treated leaf assessed as time required to stop feeding at 124 mg a.i/L after 48 hr by leaf disk assay (reference value: > 2880 min); format: functional
Spodoptera exigua [29] = experiment: Antifeedant activity against third-instar larval stage of Spodoptera exigua infested compound-treated leaf assessed as reduction in feeding damage at 124 mg a.i/L after 48 hr by leaf disk assay relative to untreated control; format: functional; parameters: scale not given: the % may be the effect or the level left
Helicoverpa zea [30] = experiment: Antifeedant activity against third-instar larval stage of Helicoverpa zea (corn earworm) infested compound-treated leaf assessed as reduction in feeding damage at 124 mg a.i/L after 48 hr by leaf disk assay relative to untreated control; format: functional; parameters: scale not given: the % may be the effect or the level left
Trichoplusia ni [31] = experiment: Antifeedant activity against third-instar larval stage of Trichoplusia ni (cabbage looper) infested compound-treated leaf assessed as reduction in feeding damage at 124 mg a.i/L after 48 hr by leaf disk assay relative to untreated control; format: functional; parameters: scale not given: the % may be the effect or the level left
Helicoverpa zea [32] = experiment: Antifeedant activity against third-instar larval stage of Helicoverpa zea (corn earworm) infested compound-treated leaf assessed as time required to stop feeding at 124 mg a.i/L after 48 hr by leaf disk assay (reference value: > 2880 min); format: functional

For `COc1cccc(C(=O)NN(C(=O)c2cc(C)cc(C)c2)C(C)(C)C)c1C` [METHOXYFENOZIDE], the Activity (Trichoplusia ni [1]) was 81.6%, the Activity (Plutella xylostella [2]) was 96% and the Time (Plutella xylostella [3]) was 514.5 min. It also gave an Activity (Helicoverpa zea [4]) of 93.3%, a Time (Spodoptera exigua [5]) of 281.1 min and an Activity (Spodoptera exigua [6]) of 72.9%. For the same compound, the Time (Trichoplusia ni [7]) was 408.8 min and the Time (Helicoverpa zea [8]) was 471.8 min.

METAFLUMIZONE gave an Activity (Plutella xylostella [9]) of 89.6%, a TIME (Plutella xylostella [10]) of 6.04 h and an Activity (Trichoplusia ni [11]) of 87.6%. For the same compound, the Activity (Helicoverpa zea [12]) was 57.9%, the TIME (Spodoptera exigua [13]) was 7.96 h and the Activity (Spodoptera exigua [14]) was 47.4%. It also gave a TIME (Trichoplusia ni [15]) of 4.23 h and a TIME (Helicoverpa zea [16]) of 10.3 h.

`CNC(=O)c1cc(Cl)cc(C)c1NC(=O)c1cc(Br)nn1-c1ncccc1Cl` [CHLORANTRANILIPROLE] was tested, and the Activity (Trichoplusia ni [17]) was 99.4%, the Activity (Plutella xylostella [18]) was 99.4% and the Time (Plutella xylostella [19]) was 15.4 min. It also gave a Time (Trichoplusia ni [20]) of 23.4 min, a Time (Spodoptera exigua [21]) of 25.3 min and an Activity (Spodoptera exigua [22]) of 99%. It also gave an Activity (Helicoverpa zea [23]) of 99.2% and a Time (Helicoverpa zea [24]) of 20.3 min.

Compound `CC1(C)[C@H](/C=C(\Cl)C(F)(F)F)[C@@H]1C(=O)O[C@@H](C#N)c1cccc(Oc2ccccc2)c1` [REL-LAMBDA CYHALOTHRIN] has an Activity (Plutella xylostella [25]) of 99.6%, a Time (Plutella xylostella [26]) of 8.1 min and a Time (Trichoplusia ni [27]) of 9.3 min. For the same compound, the Time (Spodoptera exigua [28]) was 5.4 min, the Activity (Spodoptera exigua [29]) was 99.5% and the Activity (Helicoverpa zea [30]) was 99.9%. For the same compound, the Activity (Trichoplusia ni [31]) was 99.9% and the Time (Helicoverpa zea [32]) was 7.3 min.
